One test deals with interleukin 8 (IL-8). As to the kind of experiment: Endothelial production of interleukin 8 induced by TNF-α. It counts as cell-based, human. The note with it: Homo sapiens, 4 h, read-out: inhibition of IL-8 production induced by TNF-α. The method, then:
(§1) Human endothelial cells were cultivated under the same conditions as those described for Example 18.
When the cells were near confluence, they were incubated for one hour in the presence or absence of the following compounds: BXT-51072, BXT-51077 or ebselen. Each of these compounds was incorporated into culture medium containing 2% of foetal calf serum at 10 μM, all other conditions being the same. […] After four hours of incubation, the interleukin 8 (IL-8) in the culture medium was measured.

The test system of a further test is P-selectin. As to the kind of experiment: Endothelial expression of P-selectin induced by TNF-α (ELISA). It counts as cell-based. The note with it: Homo sapiens, Endothelial cell; compound 10 μM; TNF-α 1 ng/ml; 3 to 4 hours; read-out: inhibition of TNF-α induced increase in expression of P-selectin. As to the method:
Human endothelial cells were cultivated under the same conditions as those described for Example 18. When the cells were near confluence, they were incubated for one hour in the presence or absence of BXT-51072 at 10 μM in culture medium containing 2% of foetal calf serum, all other conditions being the same. The cells were then washed three times with a PBS buffer. The cells which had not been pretreated by a compound were incubated in the presence or absence (control) of TNF-α, at 1 ng/ml, in the same culture medium. The pretreated cells were incubated under the same conditions, but the medium also contained BXT-51072 at 10 μM. After 3 to 4 hours of incubation, the cells were washed with a PBS buffer and fixed with 2% formaldehyde in a PBS buffer.
On the technique in general: In an ELISA, binding on a coated surface is turned into a signal by an enzyme label.

The subject of test [1] is von Willebrandt factor (vWf). The experiment in a line: Protection of endothelial cells against interleukin 1 (von Willebrandt factor release). It counts as cell-based. The note with it: Homo sapiens, Endothelial cell; compound 10 μM; IL-1α 50 U/ml; 4 h; compound present or not during IL-1 incubation; read-out: inhibition of increase in vWf liberation induced by IL-1. As to the method:
as §1
When the cells were near confluence, they were incubated for one hour in the presence or absence of the following compounds: BXT-51072, BXT-51077, each of these compounds being at 10 μM in culture medium containing 2% of foetal calf serum , all other conditions being the same. The cells were then washed three times with a PBS buffer. The cells which had not been pretreated by a compound were incubated in the presence or absence (control) of interleukin 1α (IL-1α), at 50 U/ml, in the same culture medium. […] After four hours of incubation, the von Willebrandt factor (vWf) in the culture medium was measured.

A short description of test [2]: Glutathione peroxidase activity, t-BuOOH as hydroperoxide. Conditions: compound 20 μM, pH = 7.3, 37° C., [GSH] = 2 mM. It counts as biochemical. As to the method: To 1.5 ml of HEPES buffer, 50 mM, pH=7.3, containing 0.2 mM of DTPA, 0.144 mM of NADPH, 2.2 mM of reduced glutathione and 1.1 U/ml of glutathione disulfide reductase, pre-equilibrated for 2 minutes at 37° C., 100 μl of an ethanolic mother solution of the compound to be tested or 100 μl of absolute ethanol (blank) was added. Each compound was tested at a final concentration of 20 μM.
Subsequently, 50 μl of the following was added:
tertiobutyl hydroperoxide (t-BuOOH), 6.6 mM in ultrapure water;
or the hydroperoxide of linoleic acid (18:2-OOH) prepared using soya lipoxygenase (see M. O. Funk et al., Lipids, (1976), 11, pp 113-117), 3.3 mM in a water/methanol mixture, 85/15 (V/V). The glutathione peroxidase activity was measured at 37° C. by measuring the reduction in absorbance at 340 nm over 5 minutes. The initial enzymatic rate or activity was proportional to the slope of the plot of absorbance against time.
They are expressed in nmoles of hydroperoxide reduced per minute.

Test [3] relates to endothelial cells. The experiment in a line: Viability of endothelial cells subjected to linoleic acid hydroperoxide (MTT). Format: cell-based, human. The note with it: compound 4 μM, 1 h; 18:2-OOH 50 μM, 2 h; MTT after about twenty hours. The method, then:
Human endothelial cells were cultivated at 37° C. in multi-hole plates or Petri dishes in an atmosphere of saturated humidity constituted by a gaseous mixture of 95% air and 5% of CO2. The culture medium was constituted by a M 199 medium, pH=7.4, containing 20% of foetal calf serum, 2 mM of L-glutamine, 100 U/ml of penicillin, 100 μg/ml of streptomycin and 1% by volume of a medium supplement containing heparin and a cell growth factor.
When the cells were near confluence, they were incubated for one hour in the presence or absence of one of the following compounds: BXT-51056, BXT-51072, BXT-51077, or ebelsen. Each of these compounds was incorporated at 4 μM into culture medium containing 2% of foetal calf serum, all other conditions being the same.
After washing the cells three successive times with a PBS buffer, they were incubated in the presence or absence (control) of linoleic acid hydroperoxide (18:2-OOH), 50 μM, in the culture medium defined above. […] After about twenty hours, the viability of the cells was determined by measurement using the bromide of 3-(4,5-dimethylthiazol-2-yl)-2,5-diphenyl-2H-tetrazolium (MTT).
The results are shown in FIG. 1, expressed as the survival percentage with respect to the control and where the reference is shown by the black rectangle.

In test [4] the test system is endothelial cells. The experiment in a line: Endothelial changes induced by PMN and TNF-α (von Willebrandt factor release). Conditions: BXT compounds 10 μM, pentoxifylline 50 μM; TNF-α 1 ng/ml; 3.5 h. Format: cell-based, human. As to the method: as §1
When the cells were near confluence, they were incubated for one hour in the presence or absence of the following compounds: BXT-51072, BXT-51077 or pentoxifylline. Compounds BXT-51072 and BXT-51077, each at 10 μM, and the pentoxifylline, at 50 μM, were incorporated in culture medium containing 2% of foetal calf serum, all other conditions being the same. […] Myeloperoxidase (MPO), an enzyme specifically contained in PMNs, was then measured in the cell lysates obtained to evaluate adhesion of the PMNs on the endothelial cells. The von Willebrandt factor (vWf) liberated in the culture medium by the endothelial cells was measured after three and a half hours of incubation, as a label of the changes in the cells.
Incubation of the endothelial cells in the presence of PMN and TNF-α led to a very significant increase in the quantity of MPO and vWf with respect to the respective controls (PMN alone, and endothelial cells alone respectively), meaning the adhesion of activated PMNs to the endothelial cells and changes in the latter.
They are expressed as the percentage inhibition by referring the MPO and vWf measurements to the respective concentrations of MPO and vWf determined when the endothelial cells were incubated with TNF-α and PMNs.

Bounds are passed on as bounds.

`CC1(C)CN[Se]c2ccccc21` [BXT-51072, 4,4-dimethyl-benzisoselenazine]: the results for the inhibition at 10 µM (in the test on interleukin 8 (IL-8); in the test with P-selectin; in test [1]) were ≥ 70%, > 90% and > 70%, respectively. Further, in test [2], the “Glutathione peroxidase activity, t--BuOOH” value is given as 27.4 nmoles of hydroperoxide reduced/min. Further, the “protection of the cells from death induced by 18:2-OOH” value in the test with endothelial cells [3] was “significantly protected the cells from death”. Besides, the “protection of endothelial cells against the deleterious effects of activated PMNs (vWf)” value in the test on endothelial cells [4] is recorded as “protect endothelial cells against the deleterious effects of activated PMNs”.

For the origin of these results see patent US5968920A, “Compounds having a benzisoselen-azoline and -azine structure, method for preparing same and therapeutic uses thereof” (Oxis Isle of Man, Limited, priority 1994, dated 1999).
